Reference: PMC10784468 (Nature Communications, 2024)
Positions of bridges follow the written chain, without caps; N, C: chain ends. Residues, ends and D or L forms follow the SMILES beside them. *: point of attachment. X1 = O=C(O)c1ccc(-c2c3nc(c(-c4ccc(C(=O)O)cc4)c4ccc([nH]4)c(-c4ccc(C(=O)*)cc4)c4nc(c(-c5ccc(C(=O)O)cc5)c5ccc2[nH]5)C=C4)C=C3)cc1; X2 = O=C(O)C/C(=C/C(=O)*)C(=O)O

Assays:
[1] = Critical aggregation concentration (pyrene probe, I338/I335); type: physicochemical; conditions: for I338/I335 (pyrene): pyrene 6 μM, emission 393 nm
Description: The CACs were determined using pyrene as a fluorescent probe. In brief, 50 μL of pyrene solution in acetone (480 μM) was added to a 5 mL centrifuge tube, followed by adding a series of peptide-porphyrin conjugate solutions with different concentrations, and the tube was kept overnight to evaporate the acetone completely, the concentration of pyrene being fixed at 6 μM at last. The excitation spectra of the solutions were recorded with the emission wavelength fixing at 393 nm, and the intensity ratio (I338/I335) was calculated as a function of the concentration. The CAC was determined based on the intersection point at low concentration on the plot.

[2] = test system: GPX4 protein; test: Microscale Thermophoresis (MST) ligand binding; conditions: labelled GPX4
Description: Initially, GPX4 was labeled using Protein Labeling Kit RED-NHS according to the manufacturer’s instructions to investigate the binding affinity of Gi-F-CAA, Gi-F and NGi-F-CAA with GPX4 protein. Afterward, the labelled GPX4 protein was incubated with series of Gi-F-CAA, Gi-F and NGi-F-CAA concentration gradients. Finally, the prepared samples were loaded into silica capillaries and measured with Monolish NT.115. Apparent Kd represented the affinity of assemblies rather than a single molecule. Bovine serum albumin (BSA) was used as control for calculating the apparent binding affinity between Gi-F (nanoparticle) to GPX4 protein. Briefly, as the diameter of nanoparticle is proportional to the molecular weight, according to the reported bovine serum albumin (BSA) protein size and molecular weight (7.2 nm, 66.43 KDa), the molecular weight of Gi-F nanoparticle with an average 78 nm size can be calculated to be […]. The monomer amount Gi-F nanoparticle was calculated as […].

[3] = test system: EJ cells; test: Intracellular GSH content detection; type: cell-based
Description: (§1) Initially, EJ cells (5 × 10^5) were cultured in 6-well plate with a CO2 incubator overnight at 37 °C. […] Next, EJ cells were collected and washed with PBS for 3 times. Afterwards, the cell lysates were collected by centrifugation at 8000 g for 10 min at 4 °C after lysed by freeze-thaw treatment. Finally, the GSH contents were measured with a GSH Assay Kit based on the manufacturer’s instructions.

[4] = test system: EJ cells; test: Intracellular Fe2+ ions detection; type: cell-based
Description: Initially, EJ cells (5 × 10^5) were cultured in confocal dish with a CO2 incubator overnight at 37 °C. […] Afterwards, EJ cells were washed with PBS for 3 times and replaced with culture mediums.

[5] = test system: EJ cells; test: Intracellular LPO content (MDA kit); type: cell-based
Description: as §1, with “the LPO” for “the GSH”, “measured by thiobarbituric acid (TBA) reaction” for “measured”, “a Malondialdehyde (MDA)” for “a GSH”

[6] = target: T1, GPX4 (Homo sapiens, UniProt P36969); test: Intracellular GPX4 activity detection; type: cell-based; design: endogenous in cells; host or cells: EJ bladder cancer cells
T1 sequence (P36969 1-197): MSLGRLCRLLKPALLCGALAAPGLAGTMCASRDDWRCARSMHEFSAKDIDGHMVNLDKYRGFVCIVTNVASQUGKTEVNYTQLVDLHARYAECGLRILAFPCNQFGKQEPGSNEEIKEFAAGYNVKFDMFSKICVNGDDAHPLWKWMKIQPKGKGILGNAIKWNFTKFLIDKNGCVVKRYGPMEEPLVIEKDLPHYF
Description: as §1, with “5000 rpm” for “8000 g”, “ultrasonic lysis in an ice bath.” for “lysed by freeze-thaw treatment.”, “GPX4 activity” for “GSH contents”, “GPX” for “GSH”

CC(C)C[C@H](NC(=O)c1ccc(-c2c3nc(c(-c4ccc(C(=O)O)cc4)c4ccc([nH]4)c(-c4ccc(C(=O)O)cc4)c4nc(c(-c5ccc(C(=O)O)cc5)c5ccc2[nH]5)C=C4)C=C3)cc1)C(=O)N[C@@H](CCCCNC(=O)/C=C(/CC(=O)O)C(=O)O)C(=O)N[C@@H](CC(C)C)C(=O)N[C@@H](CCCCN)C(=O)N[C@@H](CC(C)C)C(=O)N[C@@H](CCCCNC(=O)/C=C(/CC(=O)O)C(=O)O)C(=O)NCC(=O)N[C@@H](C)C(=O)N[C@H]1CSSC[C@@H](C(=O)N2CCC[C@H]2C(=O)N[C@H](C(=O)O)C(C)C)NC(=O)[C@@H]2CCCN2C(=O)[C@H](Cc2ccc(O)cc2)NC(=O)[C@H](CC(C)C)NC(=O)[C@@H]2CCCN2C(=O)[C@H](CC(C)C)NC(=O)[C@H](Cc2c[nH]c3ccccc23)NC(=O)[C@H](CC(N)=O)NC1=O [Gi-F-CAA] (X1-LK(X2)LKLK(X2)GACNWLPLYPCPV-OH; disulfide 9-17; C-terminus assumed)
I338/I335 (pyrene) ([1]; conjugate 0.97656 μM): 0.974 | I338/I335 (pyrene) ([1]; conjugate 1.95313 μM): 0.9716 | I338/I335 (pyrene) ([1]; conjugate 3.90625 μM): 0.9744 | I338/I335 (pyrene) ([1]; conjugate 7.8125 μM): 0.9774 | I338/I335 (pyrene) ([1]; conjugate 15.625 μM): 0.9762 | I338/I335 (pyrene) ([1]; conjugate 31.25 μM): 0.9729 | I338/I335 (pyrene) ([1]; conjugate 62.5 μM): 0.9783 | I338/I335 (pyrene) ([1]; conjugate 125 μM): 0.9903 | I338/I335 (pyrene) ([1]; conjugate 250 μM): 1.02 | I338/I335 (pyrene) ([1]; conjugate 500 μM): 1.0656 | I338/I335 (pyrene) ([1]; conjugate 1000 μM): 1.12 | critical aggregation concentration (CAC) ([1]; pyrene probe, I338/I335, PBS 0.01 M, pH 7.4): 149.5 µM | Fnorm (‰), MST original data ([2]; ligand concentration 3.05176e-8 (μM)): 933.824 ‰ | Fnorm (‰), MST original data ([2]; ligand concentration 6.10352e-8 (μM)): 930.278 ‰ | Fnorm (‰), MST original data ([2]; ligand concentration 1.2207e-7 (μM)): 933.334 ‰ | Fnorm (‰), MST original data ([2]; ligand concentration 2.44141e-7 (μM)): 933.054 ‰ | Fnorm (‰), MST original data ([2]; ligand concentration 4.88281e-7 (μM)): 933.313 ‰ | Fnorm (‰), MST original data ([2]; ligand concentration 9.76563e-7 (μM)): 936.876 ‰ | Fnorm (‰), MST original data ([2]; ligand concentration 1.95313e-6 (μM)): 940.785 ‰ | Fnorm (‰), MST original data ([2]; ligand concentration 3.90625e-6 (μM)): 940.492 ‰ | Fnorm (‰), MST original data ([2]; ligand concentration 7.8125e-6 (μM)): 946.829 ‰ | Fnorm (‰), MST original data ([2]; ligand concentration 1.5625e-5 (μM)): 943.797 ‰ | Fnorm (‰), MST original data ([2]; ligand concentration 3.125e-5 (μM)): 948.084 ‰ | Fnorm (‰), MST original data ([2]; ligand concentration 6.25e-5 (μM)): 945.991 ‰ | Fnorm (‰), MST original data ([2]; ligand concentration 0.000125 (μM)): 949.08 ‰ | Fnorm (‰), MST original data ([2]; ligand concentration 0.00025 (μM)): 946.188 ‰ | Fnorm (‰), MST original data ([2]; ligand concentration 0.0005 (μM)): 949.615 ‰ | Fnorm (‰), MST original data ([2]; ligand concentration 0.001 (μM)): 948.046 ‰ | intracellular GSH levels ([3]; EJ cells, pH 6.5, 40 μM, 8 h): substantial reduction of GSH levels | Relative GSH levels ([3]; pH=6.5, replicate #1): 0.188 | Relative GSH levels ([3]; pH=6.5, replicate #2): 0.178 | Relative GSH levels ([3]; pH=6.5, replicate #3): 0.129 | Relative GSH levels ([3]; pH=7.4, replicate #1): 0.657 | Relative GSH levels ([3]; pH=7.4, replicate #2): 0.628 | Relative GSH levels ([3]; pH=7.4, replicate #3): 0.54 | intracellular Fe^2+ (FerroOrange fluorescence), pH 6.5 ([4]; EJ cells, pH 6.5, 40 μM, 8 h): substantially enhanced fluorescence | intracellular Fe^2+ (FerroOrange fluorescence), pH 7.4 ([4]; EJ cells, pH 7.4, 8 h): no remarkable fluorescence | Concentrations of Fe2+ ions ([4]; pH=6.5, replicate #1): 22.485 ng/104cells | Concentrations of Fe2+ ions ([4]; pH=6.5, replicate #2): 27.487 ng/104cells | Concentrations of Fe2+ ions ([4]; pH=6.5, replicate #3): 29.009 ng/104cells | Concentrations of Fe2+ ions ([4]; pH=7.4, replicate #1): 12.656 ng/104cells | Concentrations of Fe2+ ions ([4]; pH=7.4, replicate #2): 15.918 ng/104cells | Concentrations of Fe2+ ions ([4]; pH=7.4, replicate #3): 12.221 ng/104cells | Relative MDA levels ([5]; pH=6.5, replicate #1): 4.36 | Relative MDA levels ([5]; pH=6.5, replicate #2): 4.44 | Relative MDA levels ([5]; pH=6.5, replicate #3): 4.68 | Relative MDA levels ([5]; pH=7.4, replicate #1): 1.72 | Relative MDA levels ([5]; pH=7.4, replicate #2): 1.84 | Relative MDA levels ([5]; pH=7.4, replicate #3): 2.24 | Relative activity of GPX4 ([6]; EJ cells, 8 h, pH 6.5, 40 μM, PBS group normalized as 1, #1): 0.12 | Relative activity of GPX4 ([6]; EJ cells, 8 h, pH 6.5, 40 μM, PBS group normalized as 1, #2): 0.09 | Relative activity of GPX4 ([6]; EJ cells, 8 h, pH 6.5, 40 μM, PBS group normalized as 1, #3): 0.17 | Relative activity of GPX4 ([6]; EJ cells, 8 h, pH 7.4, PBS group normalized as 1, #1): 0.62 | Relative activity of GPX4 ([6]; EJ cells, 8 h, pH 7.4, PBS group normalized as 1, #2): 0.73 | Relative activity of GPX4 ([6]; EJ cells, 8 h, pH 7.4, PBS group normalized as 1, #3): 0.69 | Relative activity of GPX4 ([6]; pH=6.5, replicate #1): 0.21 | Relative activity of GPX4 ([6]; pH=6.5, replicate #2): 0.24 | Relative activity of GPX4 ([6]; pH=6.5, replicate #3): 0.19 | Relative activity of GPX4 ([6]; pH=7.4, replicate #1): 0.76 | Relative activity of GPX4 ([6]; pH=7.4, replicate #2): 0.63 | Relative activity of GPX4 ([6]; pH=7.4, replicate #3): 0.6
